Data as given in patent US20220280543A1, “DDX17 AND NLRC4 TARGETING FOR INFLAMMATORY DISEASES” (University of Virginia Patent Foundation, priority 2019, published 2022).

Experiments:
[1] = tested on: caspase-1; test: Alu RNA induced cleavage of caspase-1 precursor in BMDM; assay type: cell-based, mouse; conditions: Alu RNA transfection (FIG. 2)
Procedure: FIG. 2. SINE RNA induced NLRC4 phosphorylation (site S533) through protein Kinase C Delta. BMDM cell pre-treated with the LRRK2 Kinase inhibitor gsk2578215a (GSK; 5-(2-Fluoro-4-pyridinyl)-2-(phenylmethoxy)-N-3-pyridinyl-benzamide; CAS Number 1285515-21-0; Sigma-Aldrich, St. Louis, Mo., United States of America) or the PKC delta inhibitor Rottlerin (CAS Number 82-08-6; Sigma-Aldrich) at 2 μM or 5 μM, and treated with Alu RNA (SEQ ID NO: 86) transfection or transfection reagent alone (Mock). NLRC4 phosphorylation (P-NLRC4) and supernatant caspase-1 activation were detected by SDS-PAGE. […] PKC delta inhibitor, Rottlerin blocked Alu RNA-induced NLRC4 phosphorylation and caspase-1 activation. The p-NLRC4 and caspase-1 (p20) bands were indicated with black arrows.

[2] = tested on: NLRC4; test: Alu RNA induced NLRC4 protein oligomerization in BMDM, Tris-glycine native PAGE; assay type: cell-based, mouse; conditions: Alu RNA 100 pmol, indicated time points (FIG. 4)
Procedure: FIG. 4. Alu RNA (SEQ ID NO: 86) induced NLRC4 protein oligomerization. Mouse BMDM was treated with Alu RNA (SEQ ID NO: 86; 100 pmol) at the indicated time points. NLRC4 oligomers were detected by Tris-glycine native PAGE. Loading control show by Actin. […] The bands of oligomeric NLRC4 protein were indicated by black arrow.
The activated NLRC4 inflammasome undergoes oligomerization by assembling into high-molecular mass multiprotein complexes. We first investigated in situ assembling of NLRC4 and apoptosis speck (ASC) like protein complexes in response to SINE RNA treatment of BMDMs. Immunofluorescence studies show increased NLRC4 and ASC specks in SINE RNA-treated BMDMs compared to mock-treated cells (FIG. 3A). To assess NLRC4 inflammasome assembly, WT and NLRC4 KO BMDM cells were treated with Alu RNA (SEQ ID NO: 86). Disuccinimidyl suberate (DSS) cross-linked lysates were resolved using denaturing SDS-PAGE to detect ASC oligomers and cell lysates were resolved using native polyacrylamide gel electrophoresis (NATIVE-PAGE) to detect NLRC4 oligomerization. […] NLRC4/ASC oligomerization is essential for the cleavage of pro-caspase-1 into its active form p20 and IL-1β release.

[3] = target: T1, DDX17 (Homo sapiens, UniProt Q92841); test: DDX17 translocation in THP-1 cells, cell fractionation and immunoblot; assay type: cell-based; conditions: THP-1, Alu RNA 100 pmol (FIG. 36)
T1 sequence (Q92841 whole entry, species assumed): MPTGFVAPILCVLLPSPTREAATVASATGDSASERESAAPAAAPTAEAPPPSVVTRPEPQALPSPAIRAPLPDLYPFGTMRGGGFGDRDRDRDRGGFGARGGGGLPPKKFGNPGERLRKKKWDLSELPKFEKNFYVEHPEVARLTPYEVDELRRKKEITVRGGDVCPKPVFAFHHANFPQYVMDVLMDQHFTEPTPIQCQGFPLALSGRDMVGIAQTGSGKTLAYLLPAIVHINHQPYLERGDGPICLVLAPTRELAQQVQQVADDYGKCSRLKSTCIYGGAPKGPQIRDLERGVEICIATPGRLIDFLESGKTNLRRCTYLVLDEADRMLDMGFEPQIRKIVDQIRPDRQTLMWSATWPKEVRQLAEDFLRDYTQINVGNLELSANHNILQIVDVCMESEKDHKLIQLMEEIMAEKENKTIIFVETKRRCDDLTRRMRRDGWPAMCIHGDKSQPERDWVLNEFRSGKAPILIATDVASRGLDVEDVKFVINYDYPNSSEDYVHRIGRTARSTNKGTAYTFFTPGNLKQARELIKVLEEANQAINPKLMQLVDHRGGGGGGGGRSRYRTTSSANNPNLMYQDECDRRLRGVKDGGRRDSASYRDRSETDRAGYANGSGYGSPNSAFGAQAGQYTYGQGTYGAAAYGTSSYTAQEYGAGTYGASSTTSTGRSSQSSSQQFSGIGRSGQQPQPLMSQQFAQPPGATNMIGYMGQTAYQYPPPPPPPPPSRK
Description: FIG. 36. Alu RNA (SEQ ID NO: 86) induces DDX17 translocation in human cells. Human monocytes (THP-1) were transfected with Alu RNA (SEQ ID NO: 86 at 100 pmol) using LIPOFECTAMINE™ 3000 brand transfection reagent (Lipo; ThermoFisher Scientific). Cell lysates were collected and subjected to cell fractionation. Immunoblots of DDX17 and Histone H3 were used to evaluate the subcellular distribution of DDX17. […] The bands of DDX17 in cell nucleus and cytoplasm were indicated by black arrows.
Human monocytes (THP-1) were treated with Alu RNA (SEQ ID NO: 86 at 100 pmol). Cell lysates were collected and subjected to cell fractionation. Immunoblots of DDX17 and Histone H3 were used to evaluate the subcellular distribution of DDX17.

[4] = tested on: NLRC4 and NLRP3 complex; test: Assembly of NLRC4 and NLRP3 complex in human RPE cells, Proximity Ligation Assay; assay type: cell-based; conditions: biotinylated Alu RNA 100 pmol, PLA (FIG. 37)
Procedure: FIG. 37. Alu RNA (SEQ ID NO: 86) induces the assembly of NLRC4 and NLRP3 complex. Human RPE cells were transfected with biotinylated Alu RNA (SEQ ID NO: 86 at 100 pmol) by LIPOFECTAMINE™ 3000 brand transfection reagent (Lipo; ThermoFisher Scientific). The assembly of NLRC4 and NLRP3 complex was evaluated by Proximity Ligation Assay (PLA). […] The signal of NLRC4-NLRP3 complexes is indicated by the white arrow.
Human RPE cells were treated with biotinylated Alu RNA (SEQ ID NO: 86 at 100 pmol). The assembly of NLRC4 and NLRP3 complex was evaluated by Proximity Ligation Assay (PLA).

[5] = target: T1, DDX17; test: CLIP (cross-linking immunoprecipitation) of biotin-Alu RNA and DDX17 in HEK293 cells; assay type: binding; parameters: Myc; expressed in transfected cells; host or cells: HEK293; conditions: UV cross-linking, streptavidin pull down (FIG. 8B)
Description: FIGS. 8A-8C. CLIP (cross-linking immunoprecipitation) on Alu RNA (SEQ ID NO: 86) and Ddx17 interaction. Human HEK293 cell transfected with btn-Alu RNA (SEQ ID NO: 86), cross-linked by ultraviolet light, pull-downed by biotin-streptavidin. The binding of Ddx17 determined by western blot. FIG. 8A. Schematic of CLIP (cross-linking immunoprecipitation) for biotin or myc-tag mediated immunoprecipitation. FIG. 8B. […] WCL is whole cell lysates. The bands of pull downed DDX17 proteins by Alu RNA (SEQ ID NO: 86) were indicated by black arrow. FIG. 8C. The HEK293 cells were transfected with myc-tagged DDX17 and biotin-Alu RNA (SEQ ID NO: 86). Cells were cross-linked and lysates for immunoprecipitation by Anti-myc beads. The total RNA was extracted, and were the Alu RNA (SEQ ID NO: 86) were detected with Northern blot. […] The bands of pull-downed Alu RNA (SEQ ID NO: 86) by myc-DDX17 proteins were indicated by black arrow.
Next, we sought to identify the sensor responsible for Alu RNA (SEQ ID NO: 86) induced NLRC4 inflammasome activation. We employed cross-linking immunoprecipitation (CLIP)-mass spectrometry to reveal protein interaction partners of Alu RNA (SEQ ID NO: 86). […] Immunoprecipitation of the cell lysate with anti-Streptavidin (FIG. 8B) or Myc antibody (FIG. 8C) pulled down biotin-labelled Alu RNA (SEQ ID NO: 86), as detected by northern blotting. […]

**Q.** How did the “cleavage of caspase-1 precursor (pro) to p20” value [1] turn out when Alu RNA: human SINE RNA, SEQ ID NO: 86 was run?
**A.** induced

**Q.** And the “formation of NLRC4 oligomers, BMDM” value [2]?
**A.** induces the formation of NLRC4 oligomers

**Q.** And the “subcellular distribution of DDX17” value [3]?
**A.** induced DDX17 translocation from the nucleus to the cytoplasm

**Q.** And the “assembly of NLRC4 and NLRP3 complex” value [4]?
**A.** induced the assembly

**Q.** And the “binding of DDX17 to biotin-Alu RNA” value [5]?
**A.** physically binds
